≈ marks a conversion by molar mass, not a printed value.
What was measured:
[1] = Acute toxicity (LD50, Litchfield and Wilcoxon); settings: mouse, in vivo, po; NMRI mice of both sexes, peroral, 7 days observation; "higher than" = highest dose administered without any death
Description: The acute toxicity was determined on NMRI strain mice of both sexes weighing 20 to 25 g each by using 6 animals for each dose. The compounds to be tested were administered perorally in a volume of 20 ml/kg, the highest dose applied was 1 000 mg/kg. After the administration the animals were kept under usual laboratory conditions for 7 days. The LD50 values were calculated according to the method of Litchfield and Wilcoxon (J. Pharmacol. Exp. Ther., 96 [1949], 99).
The data given as "higher than" a certain value mean the highest dose administered without noting any death of animals.

[2] = system: lesions of gastric mucosa; assay: Test with ethanol containing hydrochloric acid (erosion frequency and erosion index); format: in vivo, Rats; settings: for Inhibition of the erosion frequency Relative activity / Inhibition of the erosion index Relative activity: ED50 of cetraxate divided by ED50 of the compound tested; for ED50: Rattus norvegicus, po, read-out: Inhibition of the erosion frequency ED50 p.o.; for ED50 / Inhibition of the erosion index ED50 p.o.: rats, peroral, conc. hydrochloric acid/absolute ethanol 1 to 50
From the text: The principle of the method consists in that, simultaneously with the administration of absolute ethanol, hydrochloric acid is introduced to the stomach. Thus, the influence on systemic gastric acid inhibition action can be eliminated by the presence of the exogenous acid.
The reagent used in this test was a mixture of concentrated aqueous hydrochloric acid and absolute ethanol in a weight ratio of 1 to 50 in accordance with the dilution ratio used by Yamazaki et al. (Japan J. Pharmacol., 55 [1991], 415 to 424). In other respects, the experiment was performed as described under test 2.1., however, in addition to the erosion index calculated from the lenghts of the erosions in mm, the ratio of occurence of animals showing at least one gastric erosion within a test group, i.e. the erosion frequency, was also evaluated.

[3] = system: lesions of gastric mucosa; assay: Test with absolute ethanol (gastric mucosa lesions, erosion index); format: in vivo, Rats; settings: for Relative activity related to the inhibition of the free acid: gastroprotective action (absolute ethanol test) compared to the gastric acid inhibiting activity (Shay test, rats, p.o.); for activity in the test with absolute ethanol: result in words
Description: Rats of both sexes weighing 200 to 250 g, each previously starved for 24 hours, were used in this experiment. […] After one hour following the administration, the animals were killed by an overdose of ether, the stomach was excised and the alterations of gastric mucosa were examined. The lengths of the erosions were measured and summarized (expressed in mm) for each stomach to obtain the erosion index by calculating the average value of the group. The inhibition was calculated in percentage by comparing the value of the group treated with ethanol to that of the control group treated only with the vehicle. Various doses of the compounds to be tested were administered, perorally, in a volume of 5 ml/kg using a pretreatment time of 60 minutes. Eight rats were used for each dose. (A. Robert, Gastroenterology 77 [1979], 761 to 767). In the test with absolute ethanol which is useful for showing the gastroprotective activity, as to the effective dose range, a sharp difference can be made between the cytoprotective effect and the gastric acid inhibition, the latter resulting in the inhibition of the gastric erosion.

Helicobacter pylori = assay: Antibacterial effect on Helicobacter pylori (MIC on blood agar); format: cell-based; settings: for MIC: Helicobacter pylori, 72 h, 37°C
Description: Helicobacter pylori strains used in these experiments were obtained from the biopsial samples of the stomachs of patients suffering from ulcerative diseases of the gastrointestinal system. From the pure culture of isolates a thick suspension was prepared with cysteine-inositol solution suitable for lyophilisation, and the suspension obtained was maintained in cold-resistant plastic ampoules in a deep-freezing chamber at a temperature of about -196°C. For the determination of the inhibitory effect of the compounds tested on Helicobacter pylori, blood agar containing 10 mg/litre of a stereoisomer of 23-[aminocarbonyl]-12-[{2-0-(3-amino-2,3,6-trideoxy-3-C-methyl-α-L-lyxo-hexopyranosyl)-β-D-glucopyranosyl}-oxy]-8,16-di-[chloro]-2,3,4,5,19,20,21,22,23,24,25,26,27,28,29,30-hexa-[decahydro]-5,19,34,36,38-penta-[hydroxy]-28-[{4-(methyl)-2-(methylamino)-1-(oxo)-pentyl}-amino]-3,21,25,28,41-penta-[oxo]-1H-6,9:15,18-[dietheno]-4,30-[iminomethano]-31,35-[metheno]-11,27,13-[[1]-propene[1,2]diyl[3]ylidene]-13H-10,14,2,22,26,29-benzodioxatetraazacycloheptatriacontine-1-carboxylic acid 〈vancomycin〉 and 25 mg/litre of [1R-(1R^x,3S^x,5R^x,6R^x,9R^x,11R^x,15S^x,16R^x,17R^x,18S^x,19E,21E,23E,25E,27E,29E,31E,33R^x,35S^x,36R^x,37S^x)]-33-[{3-(amino)-3,6-di-(deoxy)-β-D-mannopyranosyl}-oxy]-1,3,5,6,9,11,17,37-octa-[hydroxy]-15,16,18-tri-[methyl]-13-[oxo]-14,39-di-[oxa]-bicyclo-[33.3.1]-nonatriaconta-19,21,23,25,27,29,31-heptaene-36-carboxylic acid 〈amphotericin B〉 was used (C. A. M. McNulty and I. C. Dent: Susceptibility of clinical isolates of Campylobacter pylori to twenty one antimicrobial agents. Book of Abstracts, 4th European Congress of Clinical Microbiology, Nice [1989]).
The plates containing the strains were cultivated at 37°C for 72 hours under a gaseous atmosphere containing 10% of carbon dioxide and 5% of oxygen (D. M. Jones et al., J. Clin. Pathol., 37 [1984], 1 002).
The culture media were inoculated with a dilution of the broth culture of the strains grown overnight or with a suspension prepared from a culture obtained on a solid medium. About 10^5 of germs were applied to the surface of each plate.
A series of dilution were prepared from the compound to be tested. The MIC (minimal inhibiting concentration) value of the compounds tested was considered to be the lowest concentration inhibiting the growth of the test organism completely. The results obtained for (R,S)-2-(E)-[4'-(chloro)-phenylmethylene]-1-(E)-[3''-(hexylamino)-2''-(hydroxy)-propoxy-imino]-cyclohexane and colloidal bismuth subcitrate used as reference are given in Table IVa.

gastric acid secretion = assay: Effect on the gastric acid secretion (Shay's method, pylorus ligation); format: in vivo, Wistar rats; settings: test according to Shay, result in words
Description: The influence of the compounds on the gastric acid secretion was examined on starved Wistar rats of both sexes weighing 180 to 240 g each by using Shay's method (H. Shay et al., Gastroenterology, 5 [1945], 45). The compounds to be tested were given, perorally, 3 hours before the ligation of the pylorus. Four hours after the operation, the animals were killed by an overdose of ether, the stomach was excised, the stomach content was centrifuged and the free hydrochloric acid content of the gastric juice was determined by titration in the presence of Töpfer's reagent. The percentage of inhibition and then the ED50 values were determined by calculating average values for the groups and comparing those to the average values for the control group.

Row | Compound | LD50 at 168 h [1] [mg/kg] | Inhibition of the erosion frequency Relative activity [2] | Inhibition of the erosion index Relative activity [2] | ED50 [2] [mg/kg] | Inhibition of the erosion index ED50 p.o. [2] [mg/kg] | Relative activity related to the inhibition of the free acid [3] | other results
1 | CC(C)N(CC(O)CO/N=C1\CCCC\C1=C/c1ccc(Br)cc1)C(C)C (racemic) [(R,S)-2-(E)-[4'-(Bromo)-phenylmethylene]-1-(E)-[3''-(diisopropylamino)-2''-(hydroxy)-propoxy-imino]-cyclohexane] | 1000 | 9.9 | 3.7 | 19.1 | 5.9 | about 25.0 | 
2 | OC(CNC1CCCCC1)CO/N=C1\CCCC\C1=C/c1ccc(Cl)cc1 (racemic) [(R,S)-2-(E)-[4'-(Chloro)-phenylmethylene]-1-(E)-[3''-(cyclohexylamino)-2''-(hydroxy)-propoxy-imino]-cyclohexane] | > 1000 |  | 2.1 | 30 to 60 | 10.3 | 30.0 | 
3 | CN(C)CC(O)CO/N=C1\CCCC\C1=C/c1ccc(Cl)cc1 (racemic) [(R,S)-2-(E)-[4'-(Chloro)-phenylmethylene]-1-(E)-[3''-(dimethylamino)-2''-(hydroxy)-propoxy-imino]-cyclohexane] | > 1000 |  | 1.4 | 30 to 60 | 15.8 |  | 
4 | CCCCCCNCC(O)CO/N=C1\CCCC\C1=C/c1ccc(Cl)cc1 (racemic) [(R,S)-2-(E)-[4'-(Chloro)-phenylmethylene]-1-(E)-[3''-(hexylamino)-2''-(hydroxy)-propoxy-imino]-cyclohexane] | > 1000 | 7.5 | 3.1 | 25.2 | 7.2 | 25.0 | MIC (Helicobacter pylori; Helicobacter pylori strain 867/90): 1.9 µg/mL (≈ 4.83 µM); MIC (Helicobacter pylori; Helicobacter pylori strain 1596): 0.9 µg/mL (≈ 2.29 µM); MIC (Helicobacter pylori; Helicobacter pylori strain 3842): 1.9 µg/mL (≈ 4.83 µM); MIC (Helicobacter pylori; Helicobacter pylori strain 6656): 1.9 µg/mL (≈ 4.83 µM); MIC (Helicobacter pylori; Helicobacter pylori strain 6709): 1.9 µg/mL (≈ 4.83 µM); effectiveness against Helicobacter pylori (Helicobacter pylori; compared with colloidal bismuth subcitrate, result in words): substantially more effective in the test than the colloidal bismuth subcitrate
5 | CN(CC(O)CO/N=C1\CCCC\C1=C/c1ccc(Cl)cc1)C1CCCCC1 (racemic) [(R,S)-2-(E)-[4'-(Chloro)-phenylmethylene]-1-(E)-[3''-{N-(methyl)-N-(cyclohexyl)-amino}-2''-(hydroxy)-propoxy-imino]-cyclohexane] | > 1000 |  |  |  |  |  | 
6 | CCCCCCNCC(O)CO/N=C1\CCCC\C1=C/c1ccccc1 (racemic) [(R,S)-2-(E)-[Phenylmethylene]-1-(E)-[3'-(hexylamino)-2'-(hydroxy)-propoxy-imino]-cyclohexane] | > 1000 | 7.4 | 1.9 | 25.7 | 11.5 | about 250.0 | 
7 | NC[C@H]1CC[C@H](C(=O)Oc2ccc(CCC(=O)O)cc2)CC1 [cetraxate, 3-[4-{Trans-4-(aminomethyl)-cyclohexylcarbonyloxy}-phenyl]-propionic acid, reference compound] |  | 1.0 | 1.0 | 189 | 22.0 |  | LD50 at 7 days [1]: > 1000 mg/kg; gastric acid secretion inhibition (gastric acid secretion): only a moderate gastric acid secretion inhibition; activity in the test with absolute ethanol [3]: nearly identical low activity
8 | COc1ccc2[nH]c([S+]([O-])Cc3ncc(C)c(OC)c3C)nc2c1 (stereo not shown) [omeprazole, 5-[Methoxy]-2-[{4-(methoxy)-3,5-di-(methyl)-2-pyridyl}-methylsulfinyl]-benzimidazole, reference compound] |  |  |  |  |  |  | LD50 at 7 days [1]: > 4000 mg/kg
9 | the basic aluminum salt of saccharose hydrogen sulfate [sucralfate, reference compound] |  |  |  |  |  |  | activity in the test with absolute ethanol [3]: nearly identical low activity

Source: patent EP0636368B1, “The use of 2- phenylmethylene -1- 3'-(amino)-2'-(hydroxy)--propoxy-imino -cyclohexane derivatives” (EGIS GYOGYSZERGYAR RT., priority 1993, dated 1995)
